From ChEMBL document CHEMBL1165863, “Lipophilicity of novel antitumour and analgesic active 8-aryl-2,6,7,8-tetrahydroimidazo[2,1-c][1,2,4]triazine-3,4-dione derivatives determined by reversed-phase HPLC and computational methods” (Eur J Med Chem, 2010)

Assays:
[1] = Lipophilicity, Log p by HPLC; assay type: physicochemical
Mus musculus = assay: (§1) Toxicity in ip dosed mouse; assay type: organism-based; settings: in vivo
[2] = as §1; assay type: organism-based; settings: in vivo

Structure (SMILES) | logP [1] | log(1/LD50) (Mus musculus) | LD50 [2] [mg/kg] | LD (Mus musculus) [mg/kg]
O=c1[nH]nc2n(c1=O)CCN2c1ccc(Cl)c(Cl)c1 | 2.63 |  |  | 
COc1ccc(N2CCn3c2n[nH]c(=O)c3=O)cc1 | 1.21 | -3.18 |  | 
O=c1[nH]nc2n(c1=O)CCN2c1ccccc1 | 1.31 | -3.15 |  | 
Cc1ccccc1N1CCn2c1n[nH]c(=O)c2=O | 1.16 |  |  | 
O=c1[nH]nc2n(c1=O)CCN2c1cccc(Cl)c1 | 2 | -3.3 | 2000 | 
COc1ccccc1N1CCn2c1n[nH]c(=O)c2=O | 0.97 | -3.04 |  | 
O=c1[nH]nc2n(c1=O)CCN2c1ccc(Cl)cc1 | 1.99 | -3.3 |  | 2000
Cc1ccc(N2CCn3c2n[nH]c(=O)c3=O)cc1 | 1.84 | -3.25 |  | 
